Reference: patent US9952300B2, “Dynamic contrast enhanced MRI method and agents for the assessment of the macromolecular transport within pathologic tissues” (BRACCO IMAGING S.P.A., priority 2012, dated 2018)

System: WM1552/5 melanoma xenografts
Experiment: DCE-MRI with B22956/1 in WM1552/5 melanoma xenografts 24 h after PTX (Example 4)
Assay type: in vivo, NCr-nu/nu mice
Conditions: WM1552/5 tumor rim and core, 24 h after PTX 20 mg/kg i.v.
Excerpt: Indeed, the potential of non-covalent protein binding contrast agents according the invention to provide in vivo suitable estimates of the effect promoted by a therapeutic agent such as, for instance, an EPR-enhancing agent, i.e. an agent devoted to enhance the uptake of the co-administered macromolecular drug in the tumor area, has been investigated by means of Dynamic Contrast Enhanced MRI tests performed in vivo with B22956/1, used as representative agent according to the invention, on melanoma cancer model xenografts in nude mice treated with vehicle or Paclitaxel (PTX). […] Jain, R. K. & Stylianopoulos, T. Nat. Rev. Clin. Oncol. 2010, 7: 653-664).
Six- to eight-week-old female NCr-nu/nu mice, obtained from Harlan (Correzzana, Italy) were maintained under specific pathogen-free conditions and handled using aseptic procedures throughout the whole study. […]
PTX- and vehicle-treated nude mice bearing WM1552/5 melanoma xenografts (N=4 mice per group) were analyzed by DCE-MRI 24 h after PTX administration. […] Pre-contrast T1 values in tumors were measured using a multislice variable flip-angle FLASH. […]
Differences in the kinetics of distribution of the contrast agent (DCE-MRI) were analyzed by Mann Whitney U test.

For `CC(=O)O[C@H]1C(=O)[C@@]2(C)[C@H]([C@H](OC(=O)c3ccccc3)[C@]3(O)C[C@H](OC(=O)[C@H](O)[C@@H](NC(=O)c4ccccc4)c4ccccc4)C(C)=C1C3(C)C)[C@]1(OC(C)=O)CO[C@@H]1C[C@@H]2O` [PTX, Paclitaxel], the “K^trans measured with B22956/1, pre-treated versus vehicle” value was “statistically significant increase” and the “fractional plasma volume fPV (%) measured with B22956/1, pre-treated versus vehicle” value was “statistically significant increase”.
